Source: patent US20220226298A1, “GPR40 AGONISTS” (Kallyope, Inc., priority 2019, published 2022)

Molecular target: T1, human GPR40 (Homo sapiens, UniProt O14842)
T1 construct: host or cells: CHO-K1
Experiment: Inositol phosphate accumulation assay (IP1 HTRF) in CHO-K1 cells expressing human GPR40
Format: cell-based
Conditions: 90 min stimulation
Protocol: CHO-KI cells expressing human GPR40 were purchased from DiscoverX (95-1005C2). HEK293 cells expressing mouse FFAR1 were prepared using a mouse FFAR1 carrying plasmid purchased from OriGene Technologies (MR222997). The cells were transfected using Lipofectamine 2000 using manufacturer instructions and stable cell line was established from a single cell using geneticine selection. Assay ready frozen (ARF) cells were prepared and used throughout the study.
The assay was performed in a 384-well plate format using IP1 assay kit from Cis-Bio. ARF cells expressing FFAR1 (mouse and human) were thawed, washed and then plated in the appropriate medium (F12 based medium for CHO hFFAR1 and DMEM based medium for HEK293 mFFAR1—both were supplemented with 10% FBS and penicillin/streptomycin). 20 μL of 3.5×10^5 cells/mL were plated on a Poly D-Lysine coated 384-well white plate. The cells were then incubated for 16 hr at 37° C./5% CO2. After 16 hr the medium was removed and 15 μL of stimulation buffer containing the test compounds was added to the cells. The plates were then incubated for 90 min at 37° C./5% CO2. 5 μL of detection buffer (prepared as described in the IP-one kit) was added to each well and the plates were incubated at RT for 1 hr.
[…] was measured using ClarioSTAR plate reader, calculating the ratio between emissions at 665 nm and 620 nm (HTRF ratio). HTRF ratio for positive (Max) and negative (Min) controls were used to normalize HTRF data and generate values for % activity. EC50 and Max activity values were determined using a standard 4-parameter fit.

T1 sequence (O14842 whole entry): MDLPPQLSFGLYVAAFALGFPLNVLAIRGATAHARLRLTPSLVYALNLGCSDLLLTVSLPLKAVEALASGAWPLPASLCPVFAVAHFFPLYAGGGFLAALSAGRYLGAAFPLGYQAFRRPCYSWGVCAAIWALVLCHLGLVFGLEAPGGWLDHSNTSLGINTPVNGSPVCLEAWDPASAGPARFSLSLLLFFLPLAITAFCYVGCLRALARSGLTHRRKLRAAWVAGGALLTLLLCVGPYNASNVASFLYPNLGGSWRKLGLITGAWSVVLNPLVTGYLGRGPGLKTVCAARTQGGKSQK

SMILES | EC50 [nM]
COc1cc(-c2cc(C)c(C(=O)Oc3cccc([C@@H](CP(C)(=O)O)C4CC4)c3)cc2CN(C(C)C)C(C)C)c(F)cn1 (single isomer, unassigned) [Compound 71b] | > 500
COc1cc(-c2ccc(C(=O)Oc3cccc([C@H](C4CC4)[C@H](C)C(=O)O)c3)c(C)c2)ccn1 [Compound 29] | ≤ 10
COc1cc(-c2cc(C)c(C(=O)Oc3cccc([C@H](CP(C)(=O)O)C4CC4)c3)cc2CN(C(C)C)C(C)C)c(F)cn1 (single isomer, unassigned) [Compound 71a] | > 500
COc1ccc(F)c(-c2ccc(C(=O)Oc3cccc([C@@H](CC(=O)O)C4CC4)c3)nc2)c1 [Compound 4] | > 500
CCN(Cc1cc(-c2cc(OC)ncc2F)ccc1C(=O)Oc1cccc([C@@H](CC(=O)O)C2CC2)c1)C(C)C [Compound 13] | > 500
O=C(O)C[C@H](c1cccc(OC(=O)c2ccc(-c3cc(O)ccc3F)cc2)c1)C1CC1 [Compound 2] | 10 to 100
COc1cc(-c2ccc(C(=O)Oc3cccc([C@H](C4CC4)[C@H](C)C(=O)O)c3)cc2CN(C[C@H](O)[C@@H](O)[C@H](O)[C@H](O)CO)C(C)C)c(F)cn1 [Compound 35, (2S,3R)-3-cyclopropyl-3-(3-((4-(5-fluoro-2-methoxypyridin-4-yl)-3-((isopropyl((2S,3R,4R,5R)-2,3,4,5,6-pentahydroxyhexyl)amino)methyl)benzoyl)oxy)phenyl)-2-methylpropanoic acid] | > 500
CC(c1cc(C(F)(F)F)ccc1C(F)(F)F)N1CCC(C(=O)Oc2cccc([C@H](C3CC3)[C@H](C)C(=O)O)c2)CC1 (stereo partly drawn) [Compound 22, (2S,3R)-3-(3-((1-(1-(2,5-bis(trifluoromethyl)phenyl)ethyl)piperidine-4-carbonyl)oxy)phenyl)-3-cyclopropyl-2-methylpropanoic acid] | ≤ 10
COc1cc(-c2ccc(C(=O)Oc3cccc([C@H](C4CC4)[C@H](C)C(=O)O)c3)cc2CN2CCCC2(C)C)c(F)cn1 [Compound 32] | ≤ 10
COc1cc(-c2ccc(C(=O)Oc3cccc([C@H](C4CC4)[C@H](C)C(=O)O)c3F)cc2CN(C(C)C)C(C)C)c(F)cn1 [Compound 69, (2S,3R)-3-cyclopropyl-3-[3-[3-[(diisopropylamino)methyl]-4-(5-fluoro-2-methoxy-4-pyridyl)benzoyl]oxy-2-fluoro-phenyl]-2-methyl-propanoic acid] | ≤ 10
COc1cc(-c2ccc(OC(=O)c3cccc([C@H](C4CC4)[C@H](C)C(=O)O)c3)c(CN(C(C)C)C(C)C)c2)c(F)cn1 [Compound 55] | ≤ 10
CCN(Cc1cc(C(=O)Oc2cccc([C@H](C3CC3)[C@@](C)(F)C(=O)O)c2)ccc1-c1cc(OC)ccc1F)C(C)C [Compound 38] | ≤ 10
CCN(Cc1cc(C(=O)Oc2cccc([C@@H](CC(=O)O)C3CC3)c2)c(C)cc1-c1cc(OC)ncc1F)C(C)C [Compound 11, (S)-3-cyclopropyl-3-(3-((5-((ethyl(isopropyl)amino)methyl)-4-(5-fluoro-2-methoxypyridin-4-yl)-2-methylbenzoyl)oxy)phenyl)propanoic acid] | 100 to 500
COc1cc(-c2cc(F)c(C(=O)Oc3cccc([C@H](C4CC4)[C@@](C)(F)C(=O)O)c3)cc2CN(C(C)C)C(C)C)ccn1 [Compound 39] | ≤ 10
CCN(Cc1cc(C(=O)Oc2cccc([C@H](C3CC3)[C@H](C)C(=O)O)c2)ccc1-c1cc(OC)ccc1F)C(C)C [Compound 30] | ≤ 10
COc1cc(-c2ccc(C(=O)Oc3cccc([C@@H](CC(=O)O)C4CC4)c3)cc2)c(F)cn1 [Compound 3] | 10 to 100
CC(c1cc(C(F)(F)F)ccc1C(F)(F)F)N1CCC(C(=O)Oc2cccc([C@@H](CC(=O)O)C3CC3)c2)C1 (stereo partly drawn) [Compound 8, (3S)-3-(3-((1-(1-(2,5-bis(trifluoromethyl)phenyl)ethyl)pyrrolidine-3-carbonyl)oxy)phenyl)-3-cyclopropylpropanoic acid] | 10 to 100
COc1cc(-c2cc(C)c(C(=O)Oc3cccc([C@@H](CC(=O)O)C4CC4)c3)cc2CN(C(C)C)C(C)C)c(F)cn1 [Compound 19] | 10 to 100
COc1cc(-c2ccc(C(=O)Oc3cccc([C@H](C4CC4)[C@H](C)C(=O)OCc4oc(=O)oc4C)c3)cc2CN(C(C)C)C(C)C)c(F)cn1 [Compound 65, 3-((1R, 2S)-1-cyclopropyl-2-methyl-3-((5-methyl-2-oxo-1,3-dioxol-4-yl)methoxy)-3-oxopropyl)phenyl 3-((diisopropylamino)methyl)-4-(5-fluoro-2-methoxypyridin-4-yl)benzoate] | ≤ 10

SMILES | EC50 [nM]
CC(c1cc(C(F)(F)F)ccc1C(F)(F)F)N1CCN(C(=O)Oc2cccc([C@@H](CC(=O)O)C3CC3)c2)CC1 (stereo partly drawn) [Compound 20, (3S)-3-(3-((4-(1-(2,5-bis(trifluoromethyl)phenyl)ethyl)piperazine-1-carbonyl)oxy)phenyl)-3-cyclopropylpropanoic acid] | 10 to 100
COc1ccc(F)c(-c2ccc(C(=O)Oc3cccc([C@@H](CC(=O)O)C4CC4)c3)cc2)c1 [Compound 1, (S)-3-cyclopropyl-3-(3-((2′-fluoro-5′-methoxy-[1,1′-biphenyl]-4-carbonyl)oxy)phenyl) propanoic acid] | 10 to 100
CC(c1cc(C(F)(F)F)ccc1C(F)(F)F)N1CC[C@H](OC(=O)c2cccc([C@@H](CC(=O)O)C3CC3)c2)C1 (some centres unmarked) [Compound 49] | > 500
CCN(Cc1cc(C(=O)Oc2cccc([C@H](C3CC3)[C@H](C)C(=O)O)c2)ccc1-c1cc(OC)ncc1F)C(C)C [Compound 34, (2S,3R)-3-cyclopropyl-3-(3-((3-((ethyl(isopropyl)amino)methyl)-4-(5-fluoro-2-methoxypyridin-4-yl)benzoyl)oxy)phenyl)-2-methylpropanoic acid] | ≤ 10
COc1ccc(F)c(-c2ccc(C(=O)Oc3cccc([C@@H](CC(=O)O)C4CC4)c3)c(C)c2)c1 [Compound 6] | 10 to 100
COc1ccc(F)c(-c2ccc(OC(=O)c3cccc([C@@H](CC(=O)O)C4CC4)c3)cc2)c1 [Compound 41] | 100 to 500
COc1cc(-c2cc(C)c(C(=O)Oc3cccc(C(CP(C)(=O)O)C4CC4)c3)cc2CN(C(C)C)C(C)C)c(F)cn1 (centres unmarked) [Compound 70, (2-cyclopropyl-2-(3-((5-((diisopropylamino)methyl)-4-(5-fluoro-2-methoxypyridin-4-yl)-2-methylbenzoyl)oxy)phenyl)ethyl)(methyl)phosphinic acid] | > 500
O=C(O)C[C@H](c1cccc(C(=O)O)c1)C1CC1 [Compound 42] | > 500
COc1cc(-c2ccc(C(=O)Oc3cccc([C@H](C4CC4)[C@H](C)C(=O)O)c3)c(C)c2)c(C(=O)NCCO)cn1 [Compound 51] | > 500
COc1cc(-c2cc(C)c(C(=O)Oc3cccc([C@@H](CC(=O)O)C4CC4)c3)c(F)c2)ccn1 [Compound 18] | 100 to 500
CC(c1cc(C(F)(F)F)ccc1C(F)(F)F)N1CCC(OC(=O)c2cccc([C@@H](CC(=O)O)C3CC3)c2)CC1 (stereo partly drawn) [Compound 46, (3S)-3-(3-(((1-(1-(2,5-bis(trifluoromethyl)phenyl)ethyl)piperidin-4-yl)oxy)carbonyl)phenyl)-3-cyclopropylpropanoic acid] | > 500
COc1cc(-c2ccc(OC(=O)c3cccc([C@H](C4CC4)[C@@](C)(F)C(=O)O)c3)cc2CN(C(C)C)C(C)C)c(F)cn1 [Compound 63, (2R, 3S)-3-cyclopropyl-3-(3-((3-((diisopropylamino)methyl)-4-(5-fluoro-2-methoxypyridin-4-yl)phenoxy)carbonyl)phenyl)-2-fluoro-2-methylpropanoic acid] | ≤ 10
COc1ccc(F)c(-c2nocc2C(=O)Oc2cccc([C@@H](CC(=O)O)C3CC3)c2)c1 [Compound 5, (3S)-3-cyclopropyl-3-[3-[3-(2-fluoro-5-methoxy-phenyl)isoxazole-4-carbonyl]oxyphenyl]propanoic acid] | > 500
COc1cc(-c2ccc(C(=O)Oc3cccc([C@H](C4CC4)[C@H](C)C(=O)O)c3)c(C)c2)c(F)cn1 [Compound 14] | ≤ 10
COc1cc(-c2ccc(C(=O)Oc3cccc([C@H](C4CC4)[C@H](C)C(=O)O)c3)cc2)ccn1 [Compound 27] | ≤ 10
COc1cc(-c2ccc(C(=O)Oc3cccc([C@H](C4CC4)[C@H](C)C(=O)O)c3)cc2CN(C(C)C)C(C)C)ccn1 [Compound 28] | ≤ 10
COc1cc(-c2ccc(C(=O)Oc3cccc([C@H](C4CC4)[C@H](C)C(=O)O)c3)cc2CN2CCC(C)(C)C2)c(F)cn1 [Compound 33, (2S,3R)-3-cyclopropyl-3-[3-[3-[(3,3-dimethylpyrrolidin-1-yl)methyl]-4-(5-fluoro-2-methoxy-4-pyridyl)benzoyl]oxyphenyl]-2-methyl-propanoic acid] | ≤ 10
CCN(Cc1cc(OC(=O)c2cccc([C@H](C3CC3)[C@H](C)C(=O)O)c2)ccc1-c1cc(OC)ncc1F)C(C)C [Compound 57] | ≤ 10
COc1cc(-c2ccc(C(=O)Oc3cccc(C(CP(C)(=O)O)C4CC4)c3)cc2CN(C(C)C)C(C)C)c(F)cn1 (centres unmarked) [Compound 66, (2-cyclopropyl-2-(3-((3-((diisopropylamino)methyl)-4-(5-fluoro-2-methoxypyridin-4-yl)benzoyl)oxy)phenyl)ethyl)(methyl)phosphinic acid] | > 500
